Reference: US6573293B2, “Pyrrole substituted 2-indolinone protein kinase inhibitors” (Sugen, Inc., priority 2000, dated 2003)

Assays:
GST-Flk1 = molecular target: T1, GST-Flk1 (Mus musculus, UniProt P35918); experiment: GST-FLK-1 bioassay (bio flkGST); type: biochemical
T1 construct: GST-Flk1cd purified from sf9 recombinant baculovirus transformation; host or cells: Sf9 (baculovirus)

GST-FGFR1 = GST-FGFR1 (Homo sapiens, UniProt P11362); experiment: FGFR1 bioassay (bio PGFR1); type: biochemical
Chain of GST-FGFR1 (P11362 22-822): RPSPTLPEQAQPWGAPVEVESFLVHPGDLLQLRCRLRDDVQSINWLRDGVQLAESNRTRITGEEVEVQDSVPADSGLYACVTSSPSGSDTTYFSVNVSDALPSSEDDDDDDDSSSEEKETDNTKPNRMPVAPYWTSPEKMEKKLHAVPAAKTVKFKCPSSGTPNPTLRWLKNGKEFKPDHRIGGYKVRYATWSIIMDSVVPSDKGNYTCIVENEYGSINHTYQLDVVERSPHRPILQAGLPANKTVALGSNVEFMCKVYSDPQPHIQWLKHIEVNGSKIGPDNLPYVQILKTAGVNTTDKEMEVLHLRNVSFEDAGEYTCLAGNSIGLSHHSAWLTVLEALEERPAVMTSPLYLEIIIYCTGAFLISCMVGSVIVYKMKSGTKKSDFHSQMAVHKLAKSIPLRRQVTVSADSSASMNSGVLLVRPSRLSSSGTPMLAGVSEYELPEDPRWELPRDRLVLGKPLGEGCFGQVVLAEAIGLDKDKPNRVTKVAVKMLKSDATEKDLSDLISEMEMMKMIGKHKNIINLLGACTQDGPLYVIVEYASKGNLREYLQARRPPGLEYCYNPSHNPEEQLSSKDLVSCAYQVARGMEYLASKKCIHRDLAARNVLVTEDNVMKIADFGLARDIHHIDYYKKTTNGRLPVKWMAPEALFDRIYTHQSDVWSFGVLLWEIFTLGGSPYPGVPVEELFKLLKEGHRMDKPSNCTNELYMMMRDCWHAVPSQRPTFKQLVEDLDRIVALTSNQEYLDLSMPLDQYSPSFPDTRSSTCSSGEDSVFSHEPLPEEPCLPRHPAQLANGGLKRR

PDGFR-β = molecular target: T2, PDGFR-β (Homo sapiens, UniProt P09619); experiment: PDGFR bioassay (bio PDGF); type: biochemical
T2 construct: host or cells: NIH 3T3
T2 sequence (P09619 33-1106): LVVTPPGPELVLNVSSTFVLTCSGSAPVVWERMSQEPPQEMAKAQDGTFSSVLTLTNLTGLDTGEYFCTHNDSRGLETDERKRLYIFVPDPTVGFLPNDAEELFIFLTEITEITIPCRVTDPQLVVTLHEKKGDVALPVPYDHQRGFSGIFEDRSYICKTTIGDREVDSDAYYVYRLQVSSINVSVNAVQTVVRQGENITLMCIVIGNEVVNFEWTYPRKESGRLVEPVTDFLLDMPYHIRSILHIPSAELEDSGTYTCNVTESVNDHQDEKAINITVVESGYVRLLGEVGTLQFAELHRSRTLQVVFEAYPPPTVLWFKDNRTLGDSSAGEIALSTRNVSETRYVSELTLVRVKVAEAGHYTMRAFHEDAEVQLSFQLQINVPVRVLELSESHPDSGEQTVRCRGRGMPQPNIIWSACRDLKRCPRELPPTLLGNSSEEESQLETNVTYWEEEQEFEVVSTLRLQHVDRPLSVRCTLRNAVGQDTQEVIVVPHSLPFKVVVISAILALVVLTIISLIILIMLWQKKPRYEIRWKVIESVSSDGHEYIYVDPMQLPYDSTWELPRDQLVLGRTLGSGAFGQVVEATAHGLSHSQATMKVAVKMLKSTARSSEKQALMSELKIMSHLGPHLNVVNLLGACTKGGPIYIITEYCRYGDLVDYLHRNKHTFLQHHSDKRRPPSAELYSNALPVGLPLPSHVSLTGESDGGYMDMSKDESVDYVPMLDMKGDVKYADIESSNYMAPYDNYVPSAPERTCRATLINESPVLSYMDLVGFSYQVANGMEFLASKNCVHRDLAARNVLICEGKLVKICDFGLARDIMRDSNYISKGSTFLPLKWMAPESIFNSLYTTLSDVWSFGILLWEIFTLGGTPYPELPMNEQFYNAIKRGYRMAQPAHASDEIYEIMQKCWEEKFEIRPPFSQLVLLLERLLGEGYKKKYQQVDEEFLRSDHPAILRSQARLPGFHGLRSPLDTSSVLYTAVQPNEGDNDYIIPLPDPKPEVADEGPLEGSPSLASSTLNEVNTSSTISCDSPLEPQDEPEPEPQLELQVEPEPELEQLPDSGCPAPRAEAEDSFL

EGFR [1] = molecular target: T3, EGFR (Homo sapiens, UniProt P00533); experiment: EGFR bioassay (bio EGF); type: biochemical
T3 construct: A431 cell lysate (SUGEN, Inc.); host or cells: A431
T3 sequence (P00533 25-1210): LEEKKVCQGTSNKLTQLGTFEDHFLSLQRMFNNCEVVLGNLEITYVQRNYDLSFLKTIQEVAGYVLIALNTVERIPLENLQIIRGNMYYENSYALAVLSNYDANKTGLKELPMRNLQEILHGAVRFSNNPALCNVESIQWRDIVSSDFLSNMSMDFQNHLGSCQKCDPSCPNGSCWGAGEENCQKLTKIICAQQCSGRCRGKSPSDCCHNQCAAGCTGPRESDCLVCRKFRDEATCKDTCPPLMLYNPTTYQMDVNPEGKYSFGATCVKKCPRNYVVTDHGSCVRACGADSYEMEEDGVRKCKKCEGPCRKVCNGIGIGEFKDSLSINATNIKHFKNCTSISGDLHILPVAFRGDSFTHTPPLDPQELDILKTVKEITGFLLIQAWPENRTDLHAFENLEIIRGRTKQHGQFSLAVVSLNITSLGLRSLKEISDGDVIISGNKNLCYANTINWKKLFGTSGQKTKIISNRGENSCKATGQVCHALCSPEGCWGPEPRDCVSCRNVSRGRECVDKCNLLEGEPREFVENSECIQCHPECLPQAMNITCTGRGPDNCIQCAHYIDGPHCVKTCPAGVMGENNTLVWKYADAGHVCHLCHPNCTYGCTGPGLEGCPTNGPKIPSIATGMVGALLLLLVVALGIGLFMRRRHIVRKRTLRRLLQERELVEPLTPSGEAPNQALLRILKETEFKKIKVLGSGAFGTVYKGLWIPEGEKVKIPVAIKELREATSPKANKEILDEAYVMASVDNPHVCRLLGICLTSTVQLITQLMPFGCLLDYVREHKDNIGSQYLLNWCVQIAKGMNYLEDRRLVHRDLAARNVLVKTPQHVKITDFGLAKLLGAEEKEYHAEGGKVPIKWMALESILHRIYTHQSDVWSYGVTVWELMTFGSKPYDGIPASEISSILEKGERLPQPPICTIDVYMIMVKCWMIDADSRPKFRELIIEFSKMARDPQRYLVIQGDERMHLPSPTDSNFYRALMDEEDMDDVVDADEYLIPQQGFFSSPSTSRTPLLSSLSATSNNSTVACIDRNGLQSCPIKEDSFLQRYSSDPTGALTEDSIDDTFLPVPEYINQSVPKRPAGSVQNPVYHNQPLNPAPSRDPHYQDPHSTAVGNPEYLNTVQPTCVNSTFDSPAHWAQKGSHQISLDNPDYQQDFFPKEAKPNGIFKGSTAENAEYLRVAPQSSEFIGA

EGFR [2] = molecular target: T3, EGFR; experiment: cell EGF assay; type: cell-based
Procedure: Several of the assays described herein are performed in an ELISA (Enzyme-Linked Immunosorbent Sandwich Assay) format (Voller, et al., 1980, “Enzyme-Linked Immunosorbent Assay,” Manual of Clinical Immunology, 2d ed., Rose and Friedman, Am. Soc. Of Microbiology, Washington, D.C., pp. 359-371). The general procedure is as follows: a compound is introduced to cells expressing the test kinase, either naturally or recombinantly, for a selected period of time after which, if the test kinase is a receptor, a ligand known to activate the receptor is added. The cells are lysed and the lysate is transferred to the wells of an ELISA plate previously coated with a specific antibody recognizing the substrate of the enzymatic phosphorylation reaction. Non-substrate components of the cell lysate are washed away and the amount of phosphorylation on the substrate is detected with an antibody specifically recognizing phosphotyrosine compared with control cells that were not contacted with a test compound.

HER-2 kinase = molecular target: T4, HER-2 kinase (Homo sapiens, UniProt P04626); experiment: Cellular HER-2 kinase assay; type: cell-based; conditions: read-out: Her2 Kinase IC50
T4 construct: Use EGFr/HER-2 chimera/3T3-C7 cell line for this assay; It is expressed in mouse NIH 3T3 clone C7 cells; P00533 (Epidermal growth factor receptor)
T4 sequence (P04626 720-987 limits assumed): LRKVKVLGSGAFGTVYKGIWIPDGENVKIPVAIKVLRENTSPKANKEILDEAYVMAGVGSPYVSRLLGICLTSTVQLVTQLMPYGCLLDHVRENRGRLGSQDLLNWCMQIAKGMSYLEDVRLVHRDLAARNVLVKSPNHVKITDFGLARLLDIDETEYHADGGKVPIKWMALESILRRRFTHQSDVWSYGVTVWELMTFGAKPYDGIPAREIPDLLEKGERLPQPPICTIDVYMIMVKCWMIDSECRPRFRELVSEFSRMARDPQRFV

[3] = molecular target: T5, HA epitope-tagged full length pyk2 (FL.pyk2-HA) (Homo sapiens, UniProt Q14289); experiment: PYK2 bioassay; type: biochemical; conditions: read-out: bio pyk2 IC50
T5 construct: host or cells: Sf9
T5 sequence (Q14289 whole entry): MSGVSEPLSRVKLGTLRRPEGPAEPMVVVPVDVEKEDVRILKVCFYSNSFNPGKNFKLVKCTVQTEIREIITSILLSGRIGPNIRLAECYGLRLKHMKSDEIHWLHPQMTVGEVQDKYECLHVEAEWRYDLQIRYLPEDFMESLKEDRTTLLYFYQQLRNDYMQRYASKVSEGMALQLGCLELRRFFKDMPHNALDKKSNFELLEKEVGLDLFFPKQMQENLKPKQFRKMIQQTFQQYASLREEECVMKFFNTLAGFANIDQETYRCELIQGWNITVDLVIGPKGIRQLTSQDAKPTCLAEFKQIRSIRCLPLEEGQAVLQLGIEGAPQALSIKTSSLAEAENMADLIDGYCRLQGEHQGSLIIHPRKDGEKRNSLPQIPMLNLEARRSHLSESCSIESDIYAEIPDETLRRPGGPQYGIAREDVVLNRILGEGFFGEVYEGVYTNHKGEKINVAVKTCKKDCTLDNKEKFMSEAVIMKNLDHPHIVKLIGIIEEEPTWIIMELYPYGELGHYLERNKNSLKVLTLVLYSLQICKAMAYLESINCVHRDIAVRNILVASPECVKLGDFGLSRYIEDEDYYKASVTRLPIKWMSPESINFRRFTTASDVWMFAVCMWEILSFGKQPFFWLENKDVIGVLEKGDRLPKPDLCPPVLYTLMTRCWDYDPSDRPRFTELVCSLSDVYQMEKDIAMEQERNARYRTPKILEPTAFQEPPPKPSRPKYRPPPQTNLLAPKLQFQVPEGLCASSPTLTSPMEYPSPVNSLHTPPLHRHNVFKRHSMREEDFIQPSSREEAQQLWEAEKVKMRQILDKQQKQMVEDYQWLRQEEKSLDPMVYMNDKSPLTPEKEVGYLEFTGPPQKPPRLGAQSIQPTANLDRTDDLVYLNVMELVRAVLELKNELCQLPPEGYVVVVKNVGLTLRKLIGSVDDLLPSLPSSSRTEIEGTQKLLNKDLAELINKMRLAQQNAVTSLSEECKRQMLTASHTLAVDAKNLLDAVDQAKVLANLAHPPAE

human cdk2/cyclin A = molecular target: T6, human cdk2/cyclin A (Homo sapiens, UniProt P24941); experiment: CDK2/cyclin A scintillation proximity assay (cdk2spa); type: biochemical; conditions: read-out: cdk2spa C50
T6 construct: host or cells: Sf9

T1 sequence (P35918 784-1345 limits assumed): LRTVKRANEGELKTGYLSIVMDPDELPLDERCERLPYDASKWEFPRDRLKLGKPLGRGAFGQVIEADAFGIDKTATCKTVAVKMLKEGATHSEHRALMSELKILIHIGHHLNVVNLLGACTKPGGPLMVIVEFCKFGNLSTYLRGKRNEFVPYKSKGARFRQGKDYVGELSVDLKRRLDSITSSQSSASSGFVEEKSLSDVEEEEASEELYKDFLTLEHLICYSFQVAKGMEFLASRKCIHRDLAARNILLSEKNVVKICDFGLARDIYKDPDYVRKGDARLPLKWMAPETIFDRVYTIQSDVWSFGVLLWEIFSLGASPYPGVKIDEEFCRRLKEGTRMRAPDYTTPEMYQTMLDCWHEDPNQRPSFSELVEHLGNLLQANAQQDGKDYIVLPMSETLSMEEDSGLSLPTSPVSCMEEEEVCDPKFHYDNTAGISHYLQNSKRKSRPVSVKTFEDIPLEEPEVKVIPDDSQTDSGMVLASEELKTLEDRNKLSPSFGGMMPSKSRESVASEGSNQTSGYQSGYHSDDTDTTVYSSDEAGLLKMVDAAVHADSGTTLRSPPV

Compound	IC50 (GST-Flk1) [µM]	IC50 (GST-FGFR1) [µM]	IC50 (PDGFR-β) [µM]	IC50 (EGFR [1]) [µM]	IC50 (EGFR [2]) [µM]	IC50 (HER-2 kinase) [µM]	IC50 [3] [µM]	IC50 (human cdk2/cyclin A) [µM]
CCN(CC)CCCNC(=O)c1c(C)[nH]c(/C=C2\C(=O)Nc3ccc(Br)cc32)c1-c1ccccc1 [Example 47, 5-(5-Bromo-2-oxo-1,2-dihydroindol-3-ylidenemethyl)-2-methyl-4-phenyl-1H-pyrrole-3-carboxylic acid (3-diethylaminopropyl)amide]	0.08	1.56	0.06	11.4	41.5	8.4	1.05	–
Cc1[nH]c(/C=C2\C(=O)Nc3ccc(S(=O)(=O)Nc4cccc(Cl)c4)cc32)c(C)c1C(=O)NCCN1CCCC1 [Example 83, 5-[5-(3-Chloro-phenylsulfamoyl)-2-oxo-1,2-dihydroindol-3-ylidenemethyl]-2,4-dimethyl-1H-pyrrole-3-carboxylic acid (2-pyrrolidin-1-yl-ethyl)amide]	0.34	0.41	9.46	2.18	–	86.9	0.008	–
Cc1[nH]c(/C=C2\C(=O)Nc3ccc(S(=O)(=O)Nc4cccnc4)cc32)c(C)c1C(=O)NCCN1CCCC1 [Example 84, 2,4-Dimethyl-5-[2-oxo-5-(pyridin-3-ylsulfamoyl)-1,2-dihydroindol-3-ylidenemethyl]-1H-pyrrole-3-carboxylic acid (2-pyrrolidin-1-yl-ethyl)amide]	1.38	–	12.5	67.2	–	5.86	0.006	–
COC(=O)c1cc(C)c(/C=C2\C(=O)Nc3ccccc32)[nH]1 [Example 3, 4-Methyl-5-(2-oxo-1,2-dihydroindol-3-ylidenemethyl)-1H-pyrrole-2-carboxylic acid methyl ester]	9.85	9.62	> 100	> 100	> 100	–	> 100	–
Cc1[nH]c(/C=C2\C(=O)Nc3ccc(S(=O)(=O)Nc4ccccc4)cc32)c(C)c1C(=O)N1CCN(C)CC1 [Example 86, 3-[3,5-Dimethyl-4-(4-methyl-piperazine-1-carbonyl)-1H-pyrrol-2-ylmethylene]-2-oxo-2,3-dihydro-1H-indole-5-sulfonic acid phenylamide]	1.45	1.3	19.6	41.8	–	–	3.58	–
Cc1cc(C(=O)O)[nH]c1/C=C1\C(=O)Nc2ccccc21 [Example 1, 4-Methyl-5-(2-oxo-1,2-dihydroindol-3-ylidenemethyl)-1H-pyrrole-2-carboxylic acid]	57.7	15.2	> 100	> 100	> 100	–	> 100	–
Cc1cc(C(=O)O)[nH]c1/C=C1\C(=O)Nc2ccc(Cl)cc21 [Example 5, 5-(5-Chloro-2-oxo-1,2-dihydroindol-3-ylidenemethyl)-4-methyl-1H-pyrrole-2-carboxylic acid]	8.3	16.1	> 100	> 100	> 100	> 100	–	–
CC(C)c1[nH]c(/C=C2\C(=O)Nc3ccc(Br)cc32)c(-c2ccccc2)c1C(=O)NCCCN1CCCC1 [Example 38, 5-(5-Bromo-2-oxo-1,2-dihydroindol-3-ylidenemethyl)-2-isopropyl-4-phenyl-1H-pyrrole-3-carboxylic acid (3-pyrrolidin-1-ylpropyl)amide]	4.17	–	3.06	6.04	8.97	2.16	–	–

Second part, the compound after the results:

IC50 (GST-Flk1) [µM]	IC50 (GST-FGFR1) [µM]	IC50 (PDGFR-β) [µM]	IC50 (EGFR [1]) [µM]	IC50 (EGFR [2]) [µM]	IC50 (HER-2 kinase) [µM]	IC50 [3] [µM]	IC50 (human cdk2/cyclin A) [µM]	Compound
–	–	–	> 100	–	–	–	< 0.0005	CCOC(=O)CNC(=O)c1c[nH]c(C=C2C(=O)Nc3ccc(S(=O)(=O)NC)c(C)c32)c1C [Example 116, {[4-Methyl-5-(4-methyl-5-methylsulfamoyl-2-oxo-1,2-dihydro-indol-3-ylidenemethyl)-1H-pyrrole-3-carbonyl]-amino}-acetic acid ethyl ester]
3.57	> 20	> 100	> 100	> 100	> 100	–	–	CCOC(=O)c1cc(C)c(/C=C2\C(=O)Nc3ccc(Cl)cc32)[nH]1 [Example 4, 5-(5-Chloro-2-oxo-1,2-dihydroindol-3-ylidenemethyl)-4-methyl-1H-pyrrole-2-carboxlyc acid ethyl ester]
0.35	1.18	8.06	2.36	–	> 100	0.09	–	CCN(CC)CCNC(=O)c1c(C)[nH]c(/C=C2\C(=O)Nc3ccc(S(=O)(=O)Nc4cccc(Cl)c4)cc32)c1C [Example 88, 5-[5-(3-Chloro-phenylsulfamoyl)-2-oxo-1,2-dihydroindol-3-ylidenemethyl]-2,4-dimethyl-1H-pyrrole-3-carboxylic acid (2-diethylaminoethyl)amide]
0.2	0.8	2.59	> 100	–	3.76	–	–	Cc1[nH]c(/C=C2\C(=O)Nc3cccc(CCO)c32)c(C)c1C(=O)N1CCN(C)CC1 [Example 85, 3-[3,5-Dimethyl-4-(4-methyl-piperazine-1-carbonyl)-1H-pyrrol-2-ylmethylene]-4-(2-hydroxy-ethyl)-1,3-dihydroindol-2-one]
–	–	–	> 100	–	–	–	0.002	CNS(=O)(=O)c1ccc2c(c1)C(=Cc1[nH]cc(C(=O)NCC(=O)O)c1C)C(=O)N2 [Example 118, {[4-Methyl-5-(5-methylsulfamoyl-2-oxo-1,2-dihydro-indol-3-ylidenemethyl)-1H-pyrrole-3-carbonyl]-amino}-acetic acid]
3.27	7.56	6.46	–	–	9.1	0.17	–	CCN(CC)CCNC(=O)c1c(C)[nH]c(/C=C2\C(=O)Nc3ccc(S(=O)(=O)N(C)C)cc32)c1C [Example 87, 5-(5-Dimethylsulfamoyl-2-oxo-1,2-dihydroindol-3-ylidenemethyl)-2,4-dimethyl-1H-pyrrole-3-carboxylic acid (2-diethylaminoethyl)amide]
2.03	7.69	6.88	–	–	–	0.31	–	Cc1[nH]c(/C=C2\C(=O)Nc3ccc(S(=O)(=O)N(C)C)cc32)c(C)c1C(=O)NCCN1CCCC1 [Example 82, 5-(5-Dimethylsulfamoyl-2-oxo-1,2-dihydroindol-3-ylidenemethyl)-2,4-dimethyl-1H-pyrrole-3-carboxylic acid (2-pyrrolidin-1-yl-ethyl)amide]
0.006	0.3	< 0.78	17.9	21.6	7.93	0.09	–	Cc1[nH]c(/C=C2\C(=O)Nc3ccc(Br)cc32)c(C)c1C(=O)NCCN(C)C [Example 48, 5-(5-Bromo-2-oxo-1,2-dihydroindol-3-ylidenemethyl)-2,4-dimethyl-1H-pyrrole-3-carboxylic acid (2-dimethylamino-ethyl)amide]
–	–	–	> 100	–	–	–	0.006	CNS(=O)(=O)c1ccc2c(c1)C(=Cc1[nH]cc(C(=O)O)c1C)C(=O)N2 [Example 115, 4-Methyl-5-(5-methylsulfamoyl-2-oxo-1,2-dihydro-indol-3-ylidenemethyl)-1H-pyrrole-3-carboxylic acid]
